Data: US20250360099A2, “A significantly non-toxic novel Cobalt(III) Schiff base complex induces apoptosis via G2-M cell cycle arrest in human breast cancer cell line MCF-7 and cell cycle arrest of colon cancer cell lines HCT-116 and SW- 480 via G0-G1” (CHITTARANJAN NATIONAL CANCER INSTITUTE, priority 2023, published 2025)
Where two headings read alike, the source gives them in different places.

Assays:
[1] = test system: SW-480; assay: Annexin V-FITC/PI-PE dual staining, SW-480; assay type: cell-based, human; conditions: respective IC50 dose, 24 h
[2] = test system: SW-480; assay: Wound healing (scratch) assay, SW-480; assay type: cell-based, human; conditions: IC50 dose, 12-48 h
[3] = test system: SW-480; assay: Cell cycle distribution (PI), SW-480; assay type: cell-based, human; conditions: 24 h
[4] = test system: Human colon cancer cell line SW-480; assay: XTT assay, cytotoxicity on SW-480; assay type: cell-based; conditions: 24 h
Description: (§1) Colon cancer cell lines and culture condition: Human colon cancer cell lines HCT-116 and SW-480 were purchased from NCCS, Pune. The carcinoma cell line (HCT-116) is wild-type for TP53 and adenocarcinoma cell line (SW480) is a double-mutant for TP53 gene.

[5] = test system: MCF-7 cells; assay: Cell cycle study by flow cytometry after PI staining; assay type: cell-based, human; conditions: IC50 concentration, 24 h; untreated 8.88%
Procedure: (§2) Cell proliferation and cycle study using FACS: To detect cell proliferation, CFSE dye was used. At first, MCF-7 cells were stained with 5 μM of CFSE dye for 15 min at 37° C. followed by the addition of FBS containing RPMI 1640 medium to end the reaction. Then CFSE-stained cells were cultured with both oxaliplatin and complex 1 for 24 h in 35-mm plates. One set of stained untreated cells was seeded only in complete media without any compound. For inhibition of proliferation, cells were grown in a serum-free medium (starvation) for 24 h as a positive control. On the next day, the green fluorescence intensity of CFSE within each cell was measured by flow cytometry, and data were calculated using Flowjo software (version 10). For cell cycle study, MCF-7 cells were seeded at 1×10^5 cells per well in a 6-well plate, treated with an IC50 dose of complex 1 and oxaliplatin for 24 h, then digested by trypsinization and made into cell suspension (10^6 cells were harvested from each group) in 2% FBS containing 1×PBS, followed by fixation in 70% ethanol overnight at 4° C. After that cells were centrifuged at 850×g in a low-temperature centrifuge for 5 min. […] BD FACS flow cytometer was used to assess the difference in cell cycle phase distribution of nuclear DNA, which was then analyzed using Flowjo software (version 10). […]

[6] = test system: MCF-7 cells; assay: FACS-based Annexin V-FITC/PI dual staining assay; assay type: cell-based, human; conditions: IC50 dose, 24 h
Procedure: FACS-based Annexin V-FITC/PI dual staining assay: MCF-7 cells were seeded in 6-well plate at 1×10^5 cells per well and treated with an IC50 dose of complex 1 and oxaliplatin for 24 h, after which they were harvested by trypsinization and processed into cell suspensions (10^6 cells were taken from each group). Cells were centrifuged at 800 g before being re-suspended in a dye mix that included 250 μL Annexin V-FITC binding buffer, 1 μL PI solution, and 3 μL Annexin V-FITC solution as per assay kit protocol. For 15 minutes, the cell suspension was kept in dark. The BD FACS Verse was used to detect the intensities of red and green fluorescence, and Flowjo software (version 10) was used to assess the apoptotic rates of treated cells. Ten thousand events were collected to determine the population percentage. All experiments were repeated three times, and the results were presented as mean±SD.

[7] = test system: HCT-116 cells; assay: TUNEL staining, fluorescence microscopy; assay type: cell-based, human; conditions: 24 h
[8] = test system: SW-480; assay: CFSE cell proliferation, SW-480; assay type: cell-based, human; conditions: respective IC50 dose, 24 h
[9] = test system: human breast cancer cell line MCF-7; assay: MTT assay, cytotoxicity on breast cancer cells
Procedure: Breast cancer cell line and culture condition: Cells were cultured in a humidified air-jacked CO2 incubator (Thermo scientific, Heracellvios 160i). […] Human breast cancer cells lines MCF-7, were purchased from NCCS, Pune. […] The cells were cultured as monolayers in RPMI-1640 supplemented with 10% heat-inactivated fetal bovine serum (FBS), 1% penicillin-streptomycin, and 1% antibiotic-antimycotics and 1% non-essential amino acids at 37° C. in a fully humidified air-jacketed incubator of 5% CO2 and 95% air. All the experiments were performed from exponentially growing passage of 15 or less with 80% cell confluency and then sub-cultured to a fresh media to keep cells healthy and actively growing.
The MTT assay is a quantitative, sensitive, and reliable colorimetric assay that mainly measures cell viability and proliferation. […] The cells viability was estimated spectrophotometrically by measuring absorbance at 570 nm using an ELISA plate reader. To calculate the cell viability percentage, the average absorbance of each treatment group was acquired and normalized based on the untreated control. The half inhibitory concentration (IC50 value) was calculated by putting the experimental data with the dose-response model (Prism 6, Version 6.0b, GraphPad Software).

[10] = test system: HCT-116; assay: CFSE cell proliferation, HCT-116; assay type: cell-based, human; conditions: respective IC50 dose, 24 h
[11] = test system: HCT-116; assay: Annexin V-FITC/PI-PE dual staining, HCT-116; assay type: cell-based, human; conditions: respective IC50 dose, 24 h
[12] = test system: HCT-116; assay: Wound healing (scratch) assay, HCT-116; assay type: cell-based, human; conditions: IC50 dose, 12-48 h
[13] = test system: HCT-116; assay: Cell cycle distribution (PI), HCT-116; assay type: cell-based, human; conditions: 24 h
[14] = test system: Human colon cancer cell line HCT-116; assay: XTT assay, cytotoxicity on HCT-116; assay type: cell-based; conditions: 24 h
Description: as §1

[15] = test system: MCF-7 cells; assay: CFSE cell proliferation assay (FACS); assay type: cell-based, human; conditions: IC50 dose, 24 h
Procedure: as §2

[16] = test system: SW-480; assay: MTT study with OCT3 inhibitor, SW-480; assay type: cell-based, human; conditions: at the respective doses of inhibitor
[17] = test system: HCT-116; assay: MTT study with OCT3 inhibitor, HCT-116; assay type: cell-based, human; conditions: at the respective doses of inhibitor

O=C1[O][Pt]2([NH][C@@H]3CCCC[C@H]3[NH]2)[O]C1=O [oxaliplatin, reference compound]
number of apoptotic cells vs untreated, SW-480 [1]: elevated the number of apoptotic cells
migration of cells vs untreated, SW-480 [2]: reduced the migration of cells
cell cycle distribution, SW-480 [3]: cell cycle arrest at G0-G1 phase
IC50 [4]: 7.87 ± 1.54 µM
population of cells in the G2-M phase [5]: 21.3%
late apoptotic (Annexin V+/PI+) population ([6]; untreated 2.87%): 23.9%
early apoptotic population (Annexin V+/PI−) ([6]; untreated 4.96%): 9.58%
TUNEL-positive cells vs untreated control [7]: increased number of TUNEL-positive cells
cell proliferation, SW-480 [8]: suppressed the cell proliferation
IC50 ([9]; read-out: IC50, cytotoxicity on MCF-7 cells, 24 h, mean±SD): 31.4 ± 0.69 µM
IC50 ([9]; read-out: IC50, cytotoxicity on MCF-7 cells, 48 h, mean±SD): 15.1 ± 1.81 µM
cell proliferation, HCT-116 [10]: suppressed the cell proliferation
number of apoptotic cells vs untreated, HCT-116 [11]: elevated the number of apoptotic cells
migration of cells vs untreated, HCT-116 [12]: reduced the migration of cells
cell cycle distribution, HCT-116 [13]: cell cycle arrest at G0-G1 phase
IC50 [14]: 16.7 ± 1.78 µM
CFSE staining intensity vs untreated controls [15]: significantly higher

CCN1/C(=C/c2ccc3ccccc3[n+]2CC)C=Cc2ccccc21.[I-] [Dycenium-22]
toxicity of the inhibitor itself, SW-480 [16]: non-toxic
toxicity of the inhibitor itself, HCT-116 [17]: non-toxic
